From patent US9566282B2, “Methods for identifying and validating selective anti-cancer stem cell agents” (MCMASTER UNIVERSITY, priority 2011, dated 2017)
Structures can show the parent of a compound that is named as a salt.

Columns and labels:
AML LSCs = assay: Xenotransplantation of compound-treated AML cells into NSG mice; format: in vivo, human; settings: 10 μM, cells treated 24 h before transplantation
Experimental: (§1) NOD.Cg-Prkdc^scid ll2rg^tm1Wjl/SzJ adult mice (NSG) were sub-lethally irradiated with 315 rads 24 hours prior transplantation. 0.8-1.0×10^7 AML MNCs or 1.5-1.8×10^5 CB lin− hematopoietic cells treated with compound or DMSO-vehicle for 24 h were injected via tail vein (IV). After 6-10 weeks, animals were culled, and the BM and spleen were analyzed for the presence of human cells by flow cytometry (LSRII, BD) and data was analyzed using FlowJo software (Tree Star Inc). For secondary HSPC transplants, equal number of engrafted human cells from CB lin− transplants were injected IV in adult irradiated NSG mice as described for primary transplants.
(§2) To delineate whether the inhibition of AML-blasts detected in vitro was due to the compounds affecting the neoplastic stem cell compartment, xenotransplantation studies (Dick, 2008) that functionally define LSCs and hematopoietic stem cells (HSCs) were conducted (FIG. 12).

AML-OCI2 and AML-OCI3 [1] = assay: Induction of apoptosis in AML cancer cell lines (normal nuclei); format: cell-based, human
[2] = test system: primary AML cells (AML blast CFU); assay: Methylcellulose blast-CFU assay, primary AML cells; format: cell-based, human; settings: for AML-blast CFU potential / formation: 24 h treatment before plating, salinomycin at 1 μM and 10 μM
Source text: (§3) Due to the bioavailability of dopamine in fetal bovine serum (FBS) (Little et al., 2002), serum-free conditions were employed to assess the role of DRs in AML. […] DR D2-family and D1-family exert opposing actions on intracellular signaling leading to differential biological effects (Self et al., 1996).

[3] = test system: v1O4 cells (v1H9-Oct4-GFP); assay: Library screen on variant neoplastic stem cells (LOP and cell count); format: cell-based, human; settings: for hit: loss of pluripotency and reduction in cell counts: 10 μM or 1 μM, 72 hours, Z-score more than 3 SD
Experimental: Compounds that reduced cell counts below 100 were classified as highly toxic and not considered as useful.
Briefly, v1O4 cells were seeded into Matrigel-coated 96 well plates (5000 cells/well) containing mouse embryonic fibroblast conditioned media (MEFCM) supplemented with 8 ng/mL bFGF, and treated for 72 hours with compounds dissolved in DMSO. The final concentration of each compound used in treatment was either 10 μM or 1 μM (n=3). Control wells were treated with 0.1% DMSO (low control) or 100 ng/ml BMP4 (high control to induce LOP). At the end of 72 hours, cells were fixed, stained with Hoechst and imaged by automated microscopy. GFP intensity and Hoechst signal were quantified as measures of LOP and cell count, respectively, and compounds with a Z-score of more than 3 standard deviations from the mean for reduced cell count and LOP were chosen as hits.

AML-OCI2 and AML-OCI3 [4] = assay: Volumetric cell counts of AML lines treated with DR antagonists or agonists; format: cell-based, human; settings: 72 h, serum-free conditions
Experimental: The number of AML-OCI2 and AML-OCI3 cells present after 72 h treatment with DR antagonists (FIG. 16b) and agonist (FIG. 16c-d) were counted by measuring the number of events within a fixed volume following the grating strategy defined by forward scatter and side scatter clustering, 7AAD− and Hoechst+.
as §3

neoplastic hPSCs [5] = assay: p53 and p21 staining of neoplastic hPSC; format: cell-based, human; settings: 24 h; compounds at 10 μM
Source text: Antibodies used for immunocytochemistry were the following: Oct3/4 (BD Trunsduction Laboratories, cat#611203), Sox2 (R&D, cat#AF2018). To detect human hematopoietic cells, Pacific Blue−, PE−, APC− or FITC labeled anti-human CD45 was used (BD Biosciences). FITC anti-CD33, PE anti-CD13, FITC anti-CD41a, FITC anti-HLA DR, and PE anti-CD19 antibodies were obtained from BD Pharmingen. PE anti-CD14, PE anti-CD15 and PE anti-GlyA were acquired from Immunotech Beckman Coulter. To determine pluripotency, PE anti-SSEA3 (BD Biosciences) and PE- or AlexaFluor488 anti-Oct4 (BD Biosciences). Rabbit anti-human dopamine receptor antibodies; DRD1 (Cat#324390), DRD2 (Cat#324393), DRD3 (Cat#324402), DRD4 (Cat#324405) and DRD5 (Cat#324408) were sourced from EMD Chemical. Anti-rabbit Alexa-Fluor-488 (Molecular Probes) was used as the secondary antibody. Primary anti-p53 (Cat#2527) and anti-p21 (Cat#2947) rabbit IgG sourced from Cell Signaling Technology were used to stain fixed and permeabilized cells. Anti-rabbit alexa-Fluor-546 (Molecular Probes) was used as the secondary antibody. For breast tumor staining, APC anti-CD44 and PE-CD24 were sourced from BD Pharmingen.

[6] = test system: neoplastic hPSCs (v1H9-Oct4-GFP); assay: Flow cytometry of Oct4+ cells in neoplastic hPSC; format: cell-based, human; settings: three concentrations; compared with BMP4 differentiation controls
neoplastic hPSCs [7] = assay: TaqMan Low-Density Array-qPCR of differentiation genes; format: cell-based, human; settings: thioridazine-treated neoplastic hPSCs; >2 fold increase
Experimental: Cells in specific conditions were collected and RNA was extracted by using RNeasy kit (Qiagen), complementary DNA (cDNA) generation by using SuperScript III® cDNA synthesis kit (Invitrogen), pre-amplification and TaqMan® array reaction (Applied Biosystems) were performed according to manufacturer's instructions. The gene expression profile for each treated cell population was analyzed using TaqMan® Stem Cell Pluripotency Array Card on ViiA 7 Real-Time PCR System (Applied Biosystems). Each reaction sample was dispensed into loading wells on the array card and centrifuged twice at 336×g for 1 min each time, sealed, and placed in the thermal cycler. The following cycling conditions were used for all array card applications: 45° C. for 10 min, 94° C. for 10 min, and 40 cycles of 94° C. for 30 s followed by 60° C. for 1 min. Array data were normalized to 18S RNA and GAPDH and comparisons were performed using data analysis 2.0 software (Applied Biosystems).
Rapid accumulation of the cell stress marker p53 (FIG. 10d) and its transcriptional target p21 (FIG. 10e) were used to further distinguish differentiation induction from cellular toxicity.

HSPCs / HSCs (CB lin-) = settings: in vivo
Experimental: as §1, §2

[8] = test system: normal HSCs / HSPC (CB lin-); assay: Methylcellulose colony-forming assay, normal HSC/HSPC; format: cell-based, human; settings: for HSPC CFU potential: 24 h treatment before plating, 0.1, 1, 10 μM tested
Experimental: Normal HSCs and progenitors were sourced from either mobilized peripheral blood or umbilical cord blood of health patients.
Patient HSPC and AML samples were treated with compound or DMSO-vehicle (0.1%) for 24 h prior to CFU plating or xenotransplantation studies.
AML patient or CB lin− cells were cultured 24 hours in the presence of compound or DMSO-vehicle (0.1%) control. […] CB lin− cells were plated at 1000 cells/mL in Methocult GF H4434 (Stem Cell Technologies). Colonies were scored after 14 days of culture using standard morphological criteria.

[9] = test system: HL-60, OCI-AML2 and OCI-AML3; assay: Cytotoxicity of DR agonists/antagonists against AML cell lines; format: cell-based; settings: 72 h; CLOZ at higher concentrations
Experimental: (§4) All three lines are leukemic cell lines. HL-60 was derived from promyelocytic AML whereas MV 4-11 and OCI-AML3 are representative of AML. Each compound was incubated with the cells for 72 h. The control was DMSO (ie the vehicle used for the compound) for 72 h. Each condition had three replicates.
A series of dopamine receptor agonists, D3-antagonists, DR1 & 5-antagonists and multi-receptor antagonists were tested for cytotoxicity against three AML cell lines HL-60, OCI-AML2 and OCI-AML3. Testing was performed as set out in Example 1.

[10] = test system: HL-60, MV4-11 and OCI-AML3; assay: Cytotoxicity to leukemic cell lines (normalized cell number, 72 h); format: cell-based; settings: 10 μM
Experimental: as §4
The dopamine receptor antagonist and phenothiazine-related compound chlorpromazine was also investigated for effects on the AML cell lines HL-60, MV4-11 and OCI-AML3. Testing was performed as set out in Example 1.

[11] = test system: v1O4 cells versus H9 cells; assay: Dose-response cell counts, v1O4 versus H9 (selective-activity potency ratio); format: cell-based, human; settings: single 10 μM concentration point; selective at other concentrations
Experimental: The first step in the screening process, the primary screen, is shown in FIG. 21, step 1 and is also described in FIG. 17 and Example 13. […] These compounds then undergo a further set of analysis described in FIG. 21, step 2. […] 8- or 10-point dilutions for each compound are tested on variant neoplastic stem cells (V1O4) and normal stem cells (H9 cells) cells to generate dose-response curves. […] Dose response data were fit with a 4-parameter Hill equation to derive EC50, slopes, min and max values using IDBS ActivityBase software. The EC50 values are then used to calculate a selective-activity potency ratio (H9 EC50/v1O4 EC50). […] The efficacy of each compound can also be quantified by analysis if the derived min value from the 4-parameter Hill fit. An alternative metric for selective activity is an efficacy comparison. Selective EFFICACY=H9−FittedMin−v1O4−FittedMin.
Selectivity activity ratios [EC50 (v1O4)/EC50 (H9)] were calculated as discussed in Example 15 for a number of compounds screened using the methods described herein.

[12] = sorted patient AML cells, 24 h treatment

Q: What does the source list for `CSc1ccc2c(c1)N(CCC1CCCCN1C)c1ccccc1S2` (racemic) [thioridazine, 10-{2-[(RS)-1-Methylpiperidin-2-yl]ethyl}-2-methylsulfanylphenothiazine]?
A: AML LSC capacity (CD45+ CD33+ blast engraftment) (AML LSCs): significantly reduce leukemic disease-initiating AML LSCs; induction of apoptosis / cell death (AML-OCI2 and AML-OCI3 [1]): exerts its effects on these cell lines through cell death; number of AML CFU blast colonies ([2]; 10 μM, control about 22, at least 14 days): 1.6 blast colonies; AML-blast CFU potential / formation [2]: reduced AML-blast CFU formation; blast-CFU generation, DR+ subfraction [2, 12]: reduction in blast-CFU generation; blast-CFU generation, DR− subfraction [2, 12]: no reduction; hit: loss of pluripotency and reduction in cell counts [3]: identified as a hit; signs of cell stress/death (Hoechst nuclear stain) ([3]; 10 μM, 3-day treatment): less signs of cell stress/death than cells treated with thiostrepton; number of AML cells (AML-OCI2 and AML-OCI3 [4]): reduced the number of AML cells; accumulation of p53 and p21 (neoplastic hPSCs [5]): no accumulation of p53 or p21; cell number and levels of Oct4 in neoplastic hPSCs [6]: reduce levels of Oct4 below BMP4 differentiation controls; differentiation-associated genes upregulated (neoplastic hPSCs [7]): 21 of 50; HSC self-renewal (HSPCs / HSCs (CB lin-)): did not affect HSC self-renewal; colony forming potential of normal HSCs ([8]; 10 μM, DMSO control about 100, at least 14 days): about 66 total colonies; HSPC CFU potential [8]: little effect on HSPC CFU potential; cytotoxicity of AML cell lines [9]: significant effect on cytotoxicity; normalized cell number / toxicity [10]: reduced to almost zero

Q: How did the “number of AML cells” value (AML-OCI2 and AML-OCI3 [4]) turn out when `Br.CCCN(CCC)[C@@H]1CCc2ccc(O)cc2C1` [7OH-DPAT, R(+)-7-Hydroxy-DPAT hydrobromide] was run?
A: The value was “increased the number of AML cells”.

Q: `Nc1nc2nn[nH]c2c(=O)[nH]1` [8-azaguanine] was tested. Which “selectivity for cancer stem cells at a single concentration point” value (shortened to “selectivity for cancer stem cells”) [11] did it give?
A: The value was “would have not be considered selective for cancer stem cells”.

Q: `Cn1cc(C2=C(c3cn(CCCSC(=N)N)c4ccccc34)C(=O)NC2=O)c2ccccc21` [31-8220] was tested. Which “selectivity for cancer stem cells” value [11] did it give?
A: The value was “would have not be considered selective for cancer stem cells”.

Q: Which “number of AML cells” value (AML-OCI2 and AML-OCI3 [4]) does the source give for `Oc1cc2c(cc1O)[C@@H](c1ccccc1)CNCC2` [SKF38393, (R)-(+)-SKF-38393 hydrochloride] here?
A: Its value is “significant reduction in AML cell number”.

Q: Which “hit: loss of pluripotency and reduction in cell counts” value [3] does the source give for `CN(C)CCCN1c2ccccc2Sc2ccc(Cl)cc21` [chlorpromazine, Chlorpromazine hydrochloride] here?
A: Its value is “did not have a comparable effect on v1O4 cells”.

Q: What about the “number of AML cells” value (AML-OCI2 and AML-OCI3 [4]) of the same molecule?
A: The value was “reduced the number of AML cells”.

Q: And the “cytotoxicity of AML cell lines” value [9]?
A: Its value is “significant effect on cytotoxicity”.

Q: What about the “normalized cell number / toxicity” value [10] of the same molecule?
A: The value was “toxic to AML cell lines”.

Q: Which “cytotoxicity of AML cell lines” value [9] does the source give for `CN1CCN(C2=Nc3cc(Cl)ccc3Nc3ccccc32)CC1` [clozapine, Clozapine] here?
A: Its value is “significant effect on cytotoxicity”.

Q: Which “accumulation of p53 and p21” value (neoplastic hPSCs [5]) does the source give for `COc1cc([C@@H]2c3cc4c(cc3[C@@H](O[C@@H]3O[C@@H]5CO[C@@H](C)O[C@H]5[C@H](O)[C@H]3O)[C@H]3COC(=O)[C@H]23)OCO4)cc(OC)c1O` [etoposide] here?
A: Its value is “high levels of p53 and p21”.

Q: Which “hit: loss of pluripotency and reduction in cell counts” value [3] does the source give for `OCCN1CCN(CCCN2c3ccccc3Sc3ccc(C(F)(F)F)cc32)CC1` [fluphenazine] here?
A: Its value is “identified as hits”.

Q: Which “AML LSC capacity (CD45+ CD33+ blast engraftment)” value (AML LSCs) does the source give for `OC(c1cc(C(F)(F)F)nc2c(C(F)(F)F)cccc12)C1CCCCN1` (stereo not shown) [mefloquine] here?
A: The value was “ineffective in reducing AML LSC capacity”.

Q: What about the “AML-blast CFU potential / formation” value [2] of the same molecule?
A: Its value is “reduced AML-blast CFU formation”.

Q: What about the “cell number and levels of Oct4 in neoplastic hPSCs” value [6] of the same molecule?
A: The value was “reductions in cell number and the levels of Oct4”.

Q: What about the “HSPC CFU potential” value [8] of the same molecule?
A: Its value is “little effect on HSPC CFU potential”.

Q: For `CCCCc1ccc2[nH]c(NC(=O)OC)nc2c1` [parbendazole], which “selectivity for cancer stem cells” value [11] is on record?
A: The value was “would have not be considered selective for cancer stem cells”.

Q: With `OCCN1CCN(CCCN2c3ccccc3Sc3ccc(Cl)cc32)CC1` [perphenazine] as the molecule, how does the “hit: loss of pluripotency and reduction in cell counts” value [3] read?
A: Its value is “identified as hits”.

Q: `CN1CCN(CCCN2c3ccccc3Sc3ccc(Cl)cc32)CC1` [prochlorperazine] was tested. Which “hit: loss of pluripotency and reduction in cell counts” value [3] did it give?
A: The value was “identified as hits”.

Q: Which “AML-blast CFU potential / formation” value [2] does the source give for `CC[C@@H](C(=O)[C@@H](C)[C@@H](O)[C@H](C)[C@@H]1O[C@@H]([C@@H](CC)C(=O)O)CC[C@@H]1C)[C@H]1O[C@]2(C=C[C@@H](O)[C@]3(CC[C@@](C)([C@H]4CC[C@](O)(CC)[C@H](C)O4)O3)O2)[C@H](C)C[C@@H]1C` [salinomycin] here?
A: The value was “reduced AML-blast CFU potential”.

Q: What about the “HSPC CFU potential” value [8] of the same molecule?
A: Its value is “reduced HSPC CFU potential over all doses tested”.

Q: `CN1CCN(CCCN2c3ccccc3Sc3ccc(C(F)(F)F)cc32)CC1` [trifluoperazine] was tested. Which “hit: loss of pluripotency and reduction in cell counts” value [3] did it give?
A: Its value is “identified as hits”.

Q: For `CN(C)CCCN1c2ccccc2Sc2ccc(C(F)(F)F)cc21` [triflupromazine], which “hit: loss of pluripotency and reduction in cell counts” value [3] is on record?
A: Its value is “identified as hits”.

Q: For “BMP4: positive control that induces differentiation / loss of pluripotency, 100 ng/ml”, which “accumulation of p53 and p21” value (neoplastic hPSCs [5]) is on record?
A: The value was “no accumulation of p53 or p21”.
